Publication PMC8474119, “Discovery and SAR Evolution of Pyrazole Azabicyclo[3.2.1]octane Sulfonamides as a Novel Class of Non-Covalent N-Acylethanolamine-Hydrolyzing Acid Amidase (NAAA) Inhibitors for Oral Administration” (Journal of Medicinal Chemistry, 2021)

Legend:
[1] = Liver microsomal stability assay (NADPH), rat; format: in vitro ADME; details: male, Sprague-Dawley, pH 7.5, rat liver microsomes, read-out: LM_NADPH t1/2
Procedure: Pooled CD1 mouse (M1000, male), IGS Sprague-Dawley rat (R1000, male), and human (H1000, male) liver microsomes were purchased from SEKISUI XenoTech. 10 mM DMSO stock solution of the test compound (39 or 50) was preincubated at 37 °C for 15 min with mouse, rat, or human liver microsomes in 0.1 M Tris-HCl buffer (pH 7.5) with 10% DMSO. The final concentration was 4.6 μM. After preincubation, the cofactor (NADPH) was added to the incubation mixture, and the incubation was continued at 37 °C for 1 h. At each time point (0, 5, 15, 30, and 60 min), 30 μL of incubation mixture was diluted with 200 μL cold CH3CN spiked with 200 nM of an appropriate internal standard, followed by centrifugation at 3.270g for 15 min. […] A reference incubation mixture of each specie (microsomes without cofactors) was prepared for each test compound and analyzed at t = 0 and 60 min in order to verify the compound stability in the matrix. […] The supernatants were analyzed by LC–MS/MS on a Waters ACQUITY UPLC-MS TQD system consisting of a triple quadrupole detector (TQD) mass spectrometer equipped with an electrospray ionization interface and a photodiode array eλ detector (PDA) from Waters Inc. (Milford, MA, USA). […] The percentage of test compound remaining at each time point relative to t = 0 was calculated by the response factor on the basis of the internal standard peak area. […]

h-NAAA = biological target: T1, h-NAAA (Homo sapiens, UniProt Q02083); experiment: Fluorogenic human-NAAA assay (h-NAAA, fluo.); format: biochemical; details: for LipE: LipE = pIC50 – c Log P (h-NAAA); for pIC50: Table S1; for pIC50 / IC50: h-NAAA (fluo.); for IC50: mean ± SD (n ≥ 3), n.a.: not active @50 μM (<10% inhibition)
T1 construct: made in house; host or cells: HEK-293 cells stably overexpressing human NAAA; enzyme-enriched (lysosomal) lysate
T1 sequence (Q02083 29-125 limits assumed): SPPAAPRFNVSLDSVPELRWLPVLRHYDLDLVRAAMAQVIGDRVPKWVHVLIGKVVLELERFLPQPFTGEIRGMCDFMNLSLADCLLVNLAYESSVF
T1 sequence (Q02083 126-359 limits assumed): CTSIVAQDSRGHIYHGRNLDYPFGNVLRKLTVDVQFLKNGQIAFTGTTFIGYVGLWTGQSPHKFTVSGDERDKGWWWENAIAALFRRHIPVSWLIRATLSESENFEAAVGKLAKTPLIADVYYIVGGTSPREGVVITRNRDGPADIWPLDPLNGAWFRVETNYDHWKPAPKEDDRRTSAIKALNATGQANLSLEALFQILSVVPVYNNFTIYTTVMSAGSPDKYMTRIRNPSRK
Procedure: Human recombinant proteins were obtained from HEK-293 stable overexpressing human NAAA, AC, and FAAH-1 cell lines, respectively. Cells were grown in Dulbecco’s modified Eagle medium (DMEM) containing 10% FBS, 1% glutamine, 1 mM sodium pyruvate, and 500 μg/mL geneticin (G418). To obtain a high-density cell proliferation, h-NAAA-HEK-293 cells were grown in BelloCell-500 bottle, a compact bioreactor. On the contrary, h-AC and h-FAAH-1-HEK-293 cells were grown in 150 mm dishes and scraped off with cold PBS 1× pH 7.4 at 80% confluence. Cell pellets were collected and stored at −80 °C until protein preparation.
HEK-293 cells stably transfected with the human NAAA or human AC coding sequences were used as the enzyme source. Cells were suspended in 20 mM Tris-HCl (pH 7.4) with 0.32 M sucrose, sonicated, and centrifuged at 800g for 30 min at 4 °C. Supernatants were then centrifuged at 12,000g for 30 min at 4 °C. Pellets were resuspended in PBS buffer (pH 7.4) and subjected to three freeze-thaw cycles at −80 °C. The suspension was finally centrifuged at 105,000g for 1 h at 4 °C, supernatants were collected, protein concentration was measured, and samples were aliquoted and stored at −80 °C until use.
The assay was run in 96-well microplates (Black OptiPlate-96 F; PerkinElmer, Massachusetts, USA), in a total reaction volume of 200 μL. h-NAAA protein preparation (4 μg) was preincubated for 30 min with various concentrations of test compounds or vehicle control (DMSO 5%) in 100 mM citrate/phosphate buffer (pH 4.5) containing 3.0 mM DTT, 0.1% NP40, 0.05% BSA, and 150 mM NaCl. The background (no activity) samples were prepared using assay buffer without h-NAAA and DMSO (5%). N-(4-methyl-2-oxo-chromen-7-yl)-hexadecanamide (PAMCA)[60] was used as a substrate (2 μM) and the reaction was carried out for 50 min at 37 °C. Fluorescence was measured with EnVision 2014 Multilabel Reader (PerkinElmer, Massachusetts, USA) using an excitation wavelength of 355 nm and an emission of 460 nm. IC50 values were calculated by non-linear regression analysis of log[concentration]/response curves generated with mean replicate values using a four-parameter Hill equation curve fitting with GraphPad Prism 5 (GraphPad Software Inc., CA, USA).

[2] = Liver microsomal stability assay (NADPH), mouse; format: in vitro ADME; details: for half-life at 4.6 μM: male, CD1, pH 7.5, mouse liver microsomes, read-out: LM_NADPH t1/2; for % compound remaining at last time-point, LM_NADPH: mouse liver microsomes, 4.6 μM, 60 min
Procedure: Pooled CD1 mouse (M1000, male), IGS Sprague-Dawley rat (R1000, male), and human (H1000, male) liver microsomes were purchased from SEKISUI XenoTech. 10 mM DMSO stock solution of the test compound (39 or 50) was preincubated at 37 °C for 15 min with mouse, rat, or human liver microsomes in 0.1 M Tris-HCl buffer (pH 7.5) with 10% DMSO. The final concentration was 4.6 μM. After preincubation, the cofactor (NADPH) was added to the incubation mixture, and the incubation was continued at 37 °C for 1 h. At each time point (0, 5, 15, 30, and 60 min), 30 μL of incubation mixture was diluted with 200 μL cold CH3CN spiked with 200 nM of an appropriate internal standard, followed by centrifugation at 3.270g for 15 min. The supernatant was further diluted with H2O (1:1) for analysis. A reference incubation mixture of each specie (microsomes without cofactors) was prepared for each test compound and analyzed at t = 0 and 60 min in order to verify the compound stability in the matrix. The two time points were diluted as for the time points of the incubation mixture above. The supernatants were analyzed by LC–MS/MS on a Waters ACQUITY UPLC-MS TQD system consisting of a triple quadrupole detector (TQD) mass spectrometer equipped with an electrospray ionization interface and a photodiode array eλ detector (PDA) from Waters Inc. (Milford, MA, USA). Electrospray ionization was applied in positive mode. Compound-dependent parameters as MRM transitions and collision energy were developed for each compound. The analyses were run on an ACQUITY UPLC BEH C18 (50 × 2.1 mm ID, particle size 1.7 μm) with a VanGuard BEH C18 precolumn (5 × 2.1 mm ID, particle size 1.7 μm) at 40 °C, using H2O + 0.1% HCOOH (A) and CH3CN + 0.1% HCOOH (B) as the mobile phase. The percentage of test compound remaining at each time point relative to t = 0 was calculated by the response factor on the basis of the internal standard peak area. The percentage of test compound versus time was plotted and fitted by GraphPad Prism (GraphPad Software, Version 5 for Windows, CA, USA, www.graphpad.com) to estimate the compound’s half-life (t1/2), which was reported as mean value along with the standard deviation (n = 3).

| SMILES | half-life at 1 h, 4.6 µM [1] [min] | LipE (h-NAAA) | pIC50 (h-NAAA) | IC50 (h-NAAA) [nM] | half-life at 4.6 μM [2] [min] | % compound remaining at last time-point, LM_NADPH [2] [%] |
| --- | --- | --- | --- | --- | --- | --- |
| CCCCc1ccc(O[C@H]2C[C@H]3CC[C@@H](C2)N3S(=O)(=O)c2c(C)n[nH]c2C)cc1 [Compound 39, (1R,3r,5S)-3-(4-Butylphenoxy)-8-((3,5-dimethyl-1H-pyrazol-4-yl)sulfonyl)-8-azabicyclo[3.2.1]octane] | 13 | 3.84 | 7.64 | 23 ± 4 | > 60 | 93 |
| CCOCc1cnc(O[C@H]2C[C@H]3CC[C@@H](C2)N3S(=O)(=O)c2c(C)n[nH]c2C)cn1 [Compound 50, (1R,3r,5S)-8-((3,5-Dimethyl-1H-pyrazol-4-yl)sulfonyl)-3-((5-(ethoxymethyl)pyrazin-2-yl)oxy)-8-azabicyclo[3.2.1]octane] | 48 | 6.83 | 7.38 | 42 ± 2 | > 60 | 55 |
